Data from ChEMBL document CHEMBL2146447, “Synthesis and antimicrobial activity of amido linked pyrrolyl and pyrazolyl-oxazoles, thiazoles and imidazoles” (2011).
Activity calls are given as the source filed them. The calls are words filed in the database; no cut-off is given here.

Assays:
Type in all cases: functional
Penicillium chrysogenum [1] = test: Antifungal activity against Penicillium chrysogenum at 100 ug after 48 hrs by agar well diffusion method; details: for zone of inhibition at 100 µg/disc: read-out: DIZ
Bacillus subtilis [2] = test: Antibacterial activity against Bacillus subtilis at 100 ug after 24 hrs by agar well diffusion method; details: read-out: DIZ
Bacillus subtilis [3] = test: Antibacterial activity against Bacillus subtilis at 50 ug after 24 hrs by agar well diffusion method; details: read-out: DIZ
Klebsiella pneumoniae [4] = test: Antibacterial activity against Klebsiella pneumoniae at 50 ug after 24 hrs by agar well diffusion method; details: for zone of inhibition at 50 µg/disc: read-out: DIZ
Pseudomonas aeruginosa [5] = test: Antibacterial activity against Pseudomonas aeruginosa at 50 ug after 24 hrs by agar well diffusion method; details: for zone of inhibition at 50 µg/disc: read-out: DIZ
Pseudomonas aeruginosa [6] = test: Antibacterial activity against Pseudomonas aeruginosa at 100 ug after 24 hrs by agar well diffusion method; details: for zone of inhibition at 100 µg/disc: read-out: DIZ
Penicillium chrysogenum [7] = test: Antifungal activity against Penicillium chrysogenum at 50 ug after 48 hrs by agar well diffusion method; details: for zone of inhibition at 50 µg/disc: read-out: DIZ
Staphylococcus aureus [8] = test: Antibacterial activity against Staphylococcus aureus assessed at 50 ug after 24 hrs by agar well diffusion method; details: read-out: DIZ
Aspergillus niger [9] = test: Antifungal activity against Aspergillus niger at 100 ug after 48 hrs by agar well diffusion method; details: for zone of inhibition at 100 µg/disc: read-out: DIZ
Staphylococcus aureus [10] = test: Antibacterial activity against Staphylococcus aureus at 100 ug after 24 hrs by agar well diffusion method; details: read-out: DIZ
Klebsiella pneumoniae [11] = test: Antibacterial activity against Klebsiella pneumoniae at 100 ug after 24 hrs by agar well diffusion method; details: for zone of inhibition at 100 µg/disc: read-out: DIZ
Aspergillus niger [12] = test: Antifungal activity against Aspergillus niger at 50 ug after 48 hrs by agar well diffusion method; details: for zone of inhibition at 50 µg/disc: read-out: DIZ

SMILES	zone of inhibition at 100 µg/disc (Penicillium chrysogenum [1])	zone of inhibition at 100 µg/disc (Bacillus subtilis [2])	zone of inhibition at 50 µg/disc (Bacillus subtilis [3])	zone of inhibition at 50 µg/disc (Klebsiella pneumoniae [4])	zone of inhibition at 50 µg/disc (Pseudomonas aeruginosa [5])	zone of inhibition at 100 µg/disc (Pseudomonas aeruginosa [6])	zone of inhibition at 50 µg/disc (Penicillium chrysogenum [7])	zone of inhibition at 50 µg/disc (Staphylococcus aureus [8])	zone of inhibition at 100 µg/disc (Aspergillus niger [9])	zone of inhibition at 100 µg/disc (Staphylococcus aureus [10])	zone of inhibition at 100 µg/disc (Klebsiella pneumoniae [11])	zone of inhibition at 50 µg/disc (Aspergillus niger [12])	diameter of the inhibition zone (DIZ) (Penicillium chrysogenum [1])	diameter of the inhibition zone (DIZ) (Klebsiella pneumoniae [4])	diameter of the inhibition zone (DIZ) (Pseudomonas aeruginosa [5])	diameter of the inhibition zone (DIZ) (Pseudomonas aeruginosa [6])	diameter of the inhibition zone (DIZ) (Penicillium chrysogenum [7])	diameter of the inhibition zone (DIZ) (Aspergillus niger [9])	diameter of the inhibition zone (DIZ) (Klebsiella pneumoniae [11])	diameter of the inhibition zone (DIZ) (Aspergillus niger [12])
O=C(Nc1nc(-c2ccc(Cl)cc2)cs1)C1=NNCC1c1ccccc1 (stereo not drawn)	31 mm	26 mm	25 mm	25 mm	22 mm	23 mm	28 mm	24 mm	29 mm	27 mm	28 mm	28 mm								
O=C(Nc1nc(-c2ccc(Cl)cc2)co1)c1c[nH]cc1-c1ccccc1	28 mm	21 mm	17 mm	23 mm	18 mm	20 mm	25 mm	18 mm	26 mm	20 mm	25 mm	24 mm								
O=C(Nc1nc(-c2ccccc2)co1)c1n[nH]cc1-c1ccccc1	15 mm	15 mm	13 mm	15 mm	10 mm	12 mm	12 mm	10 mm	13 mm	12 mm	17 mm	10 mm								
O=C(Nc1nc(-c2ccccc2)co1)c1c[nH]cc1-c1ccccc1		15 mm	13 mm					12 mm		14 mm			inactive	inactive	inactive	inactive	inactive	inactive	inactive	inactive
O=C(/C=C/c1ccccc1)Nc1nc(-c2ccccc2)co1		16 mm	15 mm					12 mm		15 mm			inactive	inactive	inactive	inactive	inactive	inactive	inactive	inactive
Cc1ccc(-c2csc(NC(=O)/C=C/c3ccccc3)n2)cc1	25 mm	25 mm	23 mm	25 mm	15 mm	17 mm	22 mm	20 mm	23 mm	22 mm	27 mm	19 mm								
O=C(Nc1nc(-c2ccccc2)cs1)c1n[nH]cc1-c1ccccc1	14 mm	14 mm	12 mm	14 mm	9 mm	11 mm	11 mm	9 mm	12 mm	12 mm	16 mm	9 mm								
Cc1ccc(-c2c[nH]c(NC(=O)c3c[nH]cc3-c3ccccc3)n2)cc1	19 mm	19 mm	17 mm	19 mm	13 mm	14 mm	16 mm	14 mm	17 mm	16 mm	21 mm	14 mm								
O=C(Nc1nc(-c2ccccc2)c[nH]1)C1=NNCC1c1ccccc1 (stereo not drawn)	17 mm	17 mm	15 mm	17 mm	12 mm	14 mm	14 mm	12 mm	15 mm	14 mm	19 mm	13 mm								
